Reference: the NIST ThermoML archive (doi:10.1021/je900210h)

Settings: Fluid (supercritical or subcritical phases), Coaxial cylinder method

FCC(F)(F)F [1,1,1,2-tetrafluoroethane]
Settings	thermal conductivity [W/m/K]
385.18 K, 4959 kPa	0.0526
385.18 K, 4978 kPa	0.0528
385.18 K, 5000 kPa	0.053
385.18 K, 5022 kPa	0.053
385.18 K, 5042 kPa	0.053
385.18 K, 5058 kPa	0.053
385.18 K, 5080 kPa	0.053
385.18 K, 5100 kPa	0.053
385.18 K, 5120 kPa	0.053
385.18 K, 5151 kPa	0.0528
385.18 K, 5179 kPa	0.0526
385.18 K, 5224 kPa	0.0524
385.18 K, 5254 kPa	0.0522
385.19 K, 4900 kPa	0.0512
385.19 K, 4918 kPa	0.0518
385.19 K, 5296 kPa	0.0518
385.19 K, 5322 kPa	0.0518
385.19 K, 5358 kPa	0.0516
385.19 K, 5402 kPa	0.0516
385.19 K, 5454 kPa	0.0514
385.19 K, 5513 kPa	0.0512
385.2 K, 4880 kPa	0.0505
385.21 K, 4840 kPa	0.0488
385.22 K, 4820 kPa	0.048
385.23 K, 4800 kPa	0.0471
385.25 K, 4760 kPa	0.0458
385.26 K, 4730 kPa	0.0446
385.28 K, 4700 kPa	0.0431
385.29 K, 4670 kPa	0.0421
385.3 K, 4640 kPa	0.0411
385.31 K, 4610 kPa	0.0401
385.33 K, 4580 kPa	0.0393
385.34 K, 4540 kPa	0.0382
385.36 K, 4500 kPa	0.0371
385.37 K, 4460 kPa	0.0363
385.39 K, 4410 kPa	0.0352
385.41 K, 4360 kPa	0.0343
385.42 K, 4310 kPa	0.0335
385.57 K, 4260 kPa	0.0328
385.59 K, 4200 kPa	0.032
385.61 K, 4120 kPa	0.0311
385.72 K, 5700 kPa	0.0514
385.72 K, 5714 kPa	0.0516
385.75 K, 4060 kPa	0.0305
385.78 K, 3920 kPa	0.0293
387.19 K, 7800 kPa	0.0564
387.2 K, 7501 kPa	0.0559
387.22 K, 7002 kPa	0.0545
387.23 K, 6650 kPa	0.0536
387.25 K, 6371 kPa	0.0527
387.27 K, 9502 kPa	0.0597
387.28 K, 18006 kPa	0.0691
387.29 K, 17000 kPa	0.0682
387.3 K, 8468 kPa	0.0578
387.3 K, 16290 kPa	0.0676
387.32 K, 14910 kPa	0.0663
387.33 K, 13500 kPa	0.0648
387.33 K, 14002 kPa	0.0653
387.34 K, 13000 kPa	0.0642
387.37 K, 11008 kPa	0.0619
387.37 K, 11503 kPa	0.0625
392.65 K, 180 kPa	0.02136
394.44 K, 6457 kPa	0.0507
394.44 K, 6523 kPa	0.0509
394.44 K, 6557 kPa	0.0511
394.45 K, 6140 kPa	0.0494
394.45 K, 6200 kPa	0.0496
394.45 K, 6260 kPa	0.0498
394.45 K, 6300 kPa	0.05
394.45 K, 6399 kPa	0.0503
394.46 K, 5940 kPa	0.0483
394.46 K, 5980 kPa	0.0487
394.46 K, 6044 kPa	0.0491
394.46 K, 6100 kPa	0.0492
394.47 K, 5760 kPa	0.0472
394.47 K, 5767 kPa	0.0472
394.47 K, 5800 kPa	0.0476
394.47 K, 5811 kPa	0.0476
394.47 K, 5851 kPa	0.048
394.47 K, 5886 kPa	0.048
394.49 K, 5583 kPa	0.0453
394.49 K, 5626 kPa	0.0457
394.49 K, 5641 kPa	0.046
394.5 K, 5527 kPa	0.0444
394.52 K, 5428 kPa	0.043
394.53 K, 5366 kPa	0.0419
394.54 K, 5314 kPa	0.0411
394.55 K, 5300 kPa	0.0409
394.56 K, 5246 kPa	0.04
394.56 K, 6908 kPa	0.0519
394.56 K, 7067 kPa	0.0523
394.57 K, 5176 kPa	0.039
394.57 K, 6665 kPa	0.0513
394.57 K, 6720 kPa	0.0515
394.57 K, 6754 kPa	0.0515
394.57 K, 6800 kPa	0.0515
394.6 K, 5055 kPa	0.0374
394.68 K, 7457 kPa	0.0533
394.68 K, 7521 kPa	0.0535
394.68 K, 7635 kPa	0.0537
394.69 K, 7159 kPa	0.0526
394.69 K, 7321 kPa	0.0528
394.81 K, 7706 kPa	0.0538
394.81 K, 7827 kPa	0.0541
394.88 K, 4950 kPa	0.036
394.88 K, 4978 kPa	0.0363
394.89 K, 4890 kPa	0.0353
394.91 K, 4821 kPa	0.0346
394.93 K, 4722 kPa	0.0335
394.94 K, 4649 kPa	0.0328
394.95 K, 4583 kPa	0.0322
395.23 K, 4495 kPa	0.0315
395.24 K, 4405 kPa	0.0309
403.68 K, 7203 kPa	0.0484
403.69 K, 7105 kPa	0.048
403.69 K, 7364 kPa	0.049
403.82 K, 6973 kPa	0.0475
403.83 K, 6852 kPa	0.0468
404.23 K, 6723 kPa	0.046
404.23 K, 6754 kPa	0.0461
404.34 K, 6434 kPa	0.044
404.34 K, 6516 kPa	0.0446
404.36 K, 6559 kPa	0.0449
404.36 K, 6640 kPa	0.0453
404.38 K, 6342 kPa	0.0433
404.4 K, 6039 kPa	0.041
404.4 K, 6080 kPa	0.0413
404.42 K, 5967 kPa	0.0402
404.43 K, 5860 kPa	0.0393
404.43 K, 5908 kPa	0.0396
404.44 K, 5814 kPa	0.0388
404.45 K, 5750 kPa	0.0383
404.46 K, 5668 kPa	0.0375
404.47 K, 5579 kPa	0.0368
404.48 K, 5494 kPa	0.0361
404.49 K, 5419 kPa	0.0355
404.5 K, 5330 kPa	0.0349
404.51 K, 5242 kPa	0.0342
404.65 K, 5162 kPa	0.0336
404.67 K, 5039 kPa	0.0329
404.68 K, 4909 kPa	0.0321
404.7 K, 4754 kPa	0.0312
404.71 K, 4641 kPa	0.0307
404.73 K, 4451 kPa	0.0298
404.73 K, 4467 kPa	0.0298
404.73 K, 4523 kPa	0.0301
404.76 K, 4201 kPa	0.0287
404.76 K, 4278 kPa	0.029
404.77 K, 4070 kPa	0.0283
405.05 K, 3914 kPa	0.0278
405.06 K, 3790 kPa	0.0274
405.07 K, 3698 kPa	0.0271
405.25 K, 2700 kPa	0.0252
405.25 K, 2863 kPa	0.0254
405.26 K, 2524 kPa	0.0249
405.27 K, 2343 kPa	0.0247
405.34 K, 3411 kPa	0.0264
405.46 K, 8835 kPa	0.0521
405.47 K, 8558 kPa	0.0515
405.48 K, 7814 kPa	0.0499
405.49 K, 7506 kPa	0.049
405.81 K, 1930 kPa	0.0243
406.09 K, 1196 kPa	0.0236
406.88 K, 18500 kPa	0.0652
406.9 K, 16345 kPa	0.063
406.91 K, 15679 kPa	0.0623
406.93 K, 14350 kPa	0.0608
406.94 K, 13921 kPa	0.0603
406.96 K, 12915 kPa	0.0591
406.99 K, 11426 kPa	0.0569
407 K, 10911 kPa	0.0562
407.01 K, 10638 kPa	0.0557
426.86 K, 160 kPa	0.02469
436.44 K, 180 kPa	0.02542
446.25 K, 200 kPa	0.02665
446.25 K, 760 kPa	0.02661
451.17 K, 180 kPa	0.02683
455.69 K, 100 kPa	0.0268
455.92 K, 680 kPa	0.02719
466.31 K, 650 kPa	0.02846
476.24 K, 100 kPa	0.02922
496.18 K, 100 kPa	0.0311
515.97 K, 100 kPa	0.03304
